From patent US11860166B2 (KOREA INSTITUTE OF SCIENCE AND TECHNOLOGY, priority 2019, dated 2024)

Test system: dopamine receptor D1
Settings: co-imaging, quinpirole first, then SKF38393, FIG. 5A
Protocol: To minimize a photobleaching phenomenon, the live fluorescence microscope was set. When stimulated with light at a wavelength of 560 nm in the live fluorescence microscope, intensity at a cpRFP fluorescence wavelength of 610 nm was measured.
To induce fluorescence intensity suitable for experiments, 50 msec exposure and ND16 intensity were maintained. The fluorescence cycle was performed for total 10 minutes by measuring cpRFP images for 1 minute using the fluorescence microscope.
The saved images were analyzed using an NIS program (Nikon). cpRFP fluorescence intensity of the entire single cells in the regions of interest (ROI) was analyzed in the NIS program.

Oc1cc2c(cc1O)C(c1ccccc1)CNCC2 (stereo not shown) [SKF38393]
fluorescence of red biosensor DRD1 Red 1.3 on ligand treatment: increase in fluorescence by selective response
